Experimental data as given in patent publication US20100004285A1, “POLYMORPH OF 4-[2-[4-[1-(2-ETHOXYETHYL)-1H-BENZIMIDAZOLE-2-YL]-1-PIPERIDINYL]ETHYL]-alpha alpha-DIMETHYL-BENZENEACETIC ACID” (FAES FARMA, S.A., priority 2002, published 2010).
Entries after “also recorded” stand apart in the source; their conditions may differ.

Columns and labels:
[1] = stability of the crystalline polymorphic forms of bilastine; assay type: physicochemical
[2] = test system: histamine-induced lethality; experiment: preventing histamine-induced lethality in the guinea-pig; assay type: in vivo
[3] = test system: cutaneous capillary permeability induced by histamine; experiment: antagonism against cutaneous capillary permeability induced by histamine in the rat; assay type: in vivo

Row | SMILES | stability of the crystalline form [1] | transformation into the other polymorphs [1] | stability of the polymorph at room temperature ([1]; room temperature) | stability when stored at temperatures above room temperature ([1]; stored at temperatures above room temperature) | antihistaminic properties: histamine-induced lethality [2] | antihistaminic properties: cutaneous capillary permeability induced by histamine [3]
1 | CCOCCn1c(C2CCN(CCc3ccc(C(C)(C)C(=O)O)cc3)CC2)nc2ccccc21 [crystalline form 2, 4-[2-[4-[1-(2-ethoxyethyl)-1H benzimidazole-2-yl]-1-piperidinyl]ethyl]-αα-dimethyl-benzeneacetic acid] | stable |  |  |  |  | 
2 | CCOCCn1c(C2CCN(CCc3ccc(C(C)(C)C(=O)O)cc3)CC2)nc2ccccc21 [crystalline form 3, 4-[2-[4-[1-(2-ethoxyethyl)-1H benzimidazole-2-yl]-1-piperidinyl]ethyl]-αα-dimethyl-benzeneacetic acid] | not very stable; also recorded: the most unstable |  |  |  |  | 
3 | CCOCCn1c(C2CCN(CCc3ccc(C(C)(C)C(=O)O)cc3)CC2)nc2ccccc21 [crystalline form 1, 4-[2-[4-[1-(2-ethoxyethyl)-1H benzimidazole-2-yl]-1-piperidinyl]ethyl]-αα-dimethyl-benzeneacetic acid] | stable; also recorded: very stable | not transformed into any of the other polymorphs 2 and 3 | very stable | stable | preventing histamine-induced lethality | antagonism against cutaneous capillary permeability induced by histamine
